In patent US10898548B2, “Modulators of protein tyrosine phosphatase and uses thereof” (LEUVAS THERAPEUTICS, priority 2015, dated 2021):
Marks after values point to notes of the source that are not given here.

How the values were obtained:
[1] = tested on: protein tyrosine phosphorylation in fMLP-stimulated monocytes; test: Kinexus antibody microarray of tyrosine phosphorylation in fMLP-stimulated monocytes; type: cell-based, human; design: key to Functional effect of P1-WD on BTK / Functional effect of P1-WD on CDK2 / Functional effect of P1-WD on CTTN / Functional effect of P1-WD on DAB1 / Functional effect of P1-WD on DOK2 / Functional effect of P1-WD on ERBB2 / Functional effect of P1-WD on GRIN2B / Functional effect of P1-WD on ITGB1 / Functional effect of P1-WD on JAK2 / Functional effect of P1-WD on KDR / Functional effect of P1-WD on KIT / Functional effect of P1-WD on LIMK1 / Functional effect of P1-WD on MET / Functional effect of P1-WD on PDGFRA / Functional effect of P1-WD on PDGFRB / Functional effect of P1-WD on PRKCD / Functional effect of P1-WD on SHC1 / Functional effect of P1-WD on STAT1 / Functional effect of P1-WD on STAT2 / Functional effect of P1-WD on STAT3 / Functional effect of P1-WD on STAT5A / Functional effect of P1-WD on VCL / Functional effect of P1-WD on ABL1 / Functional effect of P1-WD on BLNK / Functional effect of P1-WD on BMX: inhibition (IN); activation (ACT)
Source text: To identify PTPRG targets in the context of fMLP signaling, we employed a high throughput antibody array technology using the P1-WD approach and fMLP-potentiated signaling networks, since this directly correlates with integrin triggering and mediated rapid adhesion. To analyze the phosphoproteome we used the comprehensive high throughput service developed by Kinexus, CA, USA. The Kinexus antibody microarray includes about 500 pan-specific and over 350 phosphosite-specific antibodies per chip, in duplicate spots. The analysis covers a variety of selected cell signaling proteins regulating cell proliferation, stress, apoptosis, adhesion, secretion, motility and other biological processes. Monocytes were treated with 50 μM P1 or P1-WD peptides for 60 min. at 37° C. and then stimulated with 50 nM fMLP for 3 min. Cells were immediately lysed according to Kinexus protocol and the samples were sent to Kinexus for microarray analysis. Data were normalized to control cells and statistically filtered by Kinexus to identify the most significant best hits. The analysis was, then, focused on phosphotyrosine-specific antibodies. Network inference analysis was performed within Cytoscape 3.1 bioinformatics environment by using previously established interatomic datasets compiled from public data-bases. The compiled protein-protein interatomic data-set was manually curated to remove self-loops and duplicate edges; different protein IDs were normalized to HGNC standard IDs. The set of 31 identified proteins whose tyrosine phosphorylation status was affected by PTPRG activity was used as bioinformatics probe allowing sub-network reconstruction. Directed node centrality indexes were computed with the Cytoscape plug-in Centiscape 2.1 (Scardoni G, et al., 2009, Bioinformatics 25: 2857-2859). Network modular decomposition was executed with the Cytoscape plug-in MCODE (Bader G, et al., 2003, BMC Bioinformatics 4: 2). Literature data mining was performed by multiple data base interrogation, mainly based on Phosphosite, PhosphoELM, PhosphoNet and KEA.
Data analysis identified 31 molecules whose phosphorylation was modified in a statistically significant manner (Table 9). Values in % columns are percentage increase or decrease of protein tyrosine phosphorylation upon fMLP-triggering in P1-WD-treated vs P1-control treated monocytes. For some proteins (For some proteins (EGFR, INSR, KDR, KIT, PDGFRA, PTK2, PXN, SRC and ZAP70) multiple phosphotyrosine residues are detected. From left to right, columns are HGNC protein symbols (in alphabetic order), phosphosites (p-Sites), changes of phosphorylation (induced by P1-WD) and the putative functional effect, inferred from literature data-mining. EGFR and PTK2 are highlighted in gray since the functional effect could not be unambiguously inferred. The functional effect of P1-WD in the far right column indicates either inhibition (IN) or activation (ACT).

[2] = tested on: Hbb^th3/+ mice (β-thalassemia model); test: circulating erythroblasts; type: in vivo, mouse; conditions: TAT-ICD 5 mg/kg i.p once every other day for 3 weeks
[3] = P1-WD vs P1, 50 μM 60 min, 50 nM fMLP 3 min
[4] = putative, inferred from literature data-mining
[5] = putative, inferred from literature data-mining, per p-Site

Question: Which “change of ABL1 Y412 tyrosine phosphorylation” value [1, 3] does the source give for “P1-WD: fusion Trojan peptide SEQ ID 3: Penetratin, glycine, PTPRG wedge domain aa 831-856; RQIKIWFQNRRMKWKKGKQFVKHIGELYSNNQHGFSEDFEEVQ (listed as Homo sapiens)” here?
Answer: Its value is −40%.

Question: And the “change of BLNK Y84 tyrosine phosphorylation” value [1, 3]?
Answer: The value was 19%.

Question: What about the “change of BMX Y40 tyrosine phosphorylation” value [1, 3] of the same substance?
Answer: Its value is −7%.

Question: And the “change of BTK Y223 tyrosine phosphorylation” value [1, 3]?
Answer: Its value is −58%.

Question: And the “change of CDK2 Y15 tyrosine phosphorylation” value [1, 3]?
Answer: Its value is 282%.

Question: And the “change of CTTN Y470 tyrosine phosphorylation” value [1, 3]?
Answer: Its value is 21%.

Question: And the “change of DAB1 Y198 tyrosine phosphorylation” value [1, 3]?
Answer: Its value is −34%.

Question: And the “change of DOK2 Y142 tyrosine phosphorylation” value [1, 3]?
Answer: The value was 9%.

Question: And the “change of EGFR Y1068 tyrosine phosphorylation” value [1, 3]?
Answer: Its value is −13%.

Question: What about the “change of EGFR Y1148 tyrosine phosphorylation” value [1, 3] of the same substance?
Answer: Its value is −16%.

Question: What about the “change of EGFR Y1173 tyrosine phosphorylation” value [1, 3] of the same substance?
Answer: Its value is 68%.

Question: What about the “change of ERBB2 Y1248 tyrosine phosphorylation” value [1, 3] of the same substance?
Answer: Its value is 34%.

Question: And the “change of GRIN2B Y1474 tyrosine phosphorylation” value [1, 3]?
Answer: Its value is 29%.

Question: What about the “change of INSR Y999 tyrosine phosphorylation” value [1, 3] of the same substance?
Answer: Its value is 58%.

Question: What about the “change of INSR Y1189/Y1190 tyrosine phosphorylation” value [1, 3] of the same substance?
Answer: Its value is 27%.

Question: What about the “change of ITGB1 Y783 tyrosine phosphorylation” value [1, 3] of the same substance?
Answer: Its value is −11%.

Question: And the “change of JAK2 Y1007/Y1008 tyrosine phosphorylation” value [1, 3]?
Answer: The value was −33%.

Question: What about the “change of KDR Y1054 + Y1059 tyrosine phosphorylation” value [1, 3] of the same substance?
Answer: The value was 22%.

Question: And the “change of KDR Y1054 tyrosine phosphorylation” value [1, 3]?
Answer: Its value is −37%.

Question: What about the “change of KIT Y703 tyrosine phosphorylation” value [1, 3] of the same substance?
Answer: The value was −60%.

Question: And the “change of KIT Y730 tyrosine phosphorylation” value [1, 3]?
Answer: Its value is −47%.

Question: What about the “change of LIMK1 Y507 tyrosine phosphorylation” value [1, 3] of the same substance?
Answer: The value was −10%.

Question: And the “change of MET Y1003 tyrosine phosphorylation” value [1, 3]?
Answer: The value was −47%.

Question: And the “change of PDGFRA Y742 tyrosine phosphorylation” value [1, 3]?
Answer: The value was 133%.

Question: What about the “change of PDGFRA Y754 tyrosine phosphorylation” value [1, 3] of the same substance?
Answer: The value was 86%.

Question: And the “change of PDGFRB Y716 tyrosine phosphorylation” value [1, 3]?
Answer: Its value is −36%.

Question: And the “change of PRKCD Y313 tyrosine phosphorylation” value [1, 3]?
Answer: Its value is 189%.

Question: What about the “change of PTK2 Y397 tyrosine phosphorylation” value [1, 3] of the same substance?
Answer: Its value is 30%.

Question: What about the “change of PTK2 Y576 tyrosine phosphorylation” value [1, 3] of the same substance?
Answer: The value was 65%.

Question: What about the “change of PTK2 Y577 tyrosine phosphorylation” value [1, 3] of the same substance?
Answer: The value was −60%.

Question: What about the “change of PTK2 Y861 tyrosine phosphorylation” value [1, 3] of the same substance?
Answer: Its value is −11%.

Question: And the “change of PXN Y31 tyrosine phosphorylation” value [1, 3]?
Answer: Its value is 19%.

Question: What about the “change of PXN Y118 tyrosine phosphorylation” value [1, 3] of the same substance?
Answer: The value was 144%.

Question: What about the “change of SHC1 Y349 + Y350 tyrosine phosphorylation” value [1, 3] of the same substance?
Answer: The value was −10%.

Question: And the “change of SRC Y419 tyrosine phosphorylation” value [1, 3]?
Answer: The value was −6%.

Question: And the “change of SRC Y530 tyrosine phosphorylation” value [1, 3]?
Answer: Its value is 94%.

Question: And the “change of STAT1 Y701 tyrosine phosphorylation” value [1, 3]?
Answer: Its value is 38%.

Question: What about the “change of STAT2 Y690 tyrosine phosphorylation” value [1, 3] of the same substance?
Answer: The value was 61%.

Question: And the “change of STAT3 Y705 tyrosine phosphorylation” value [1, 3]?
Answer: The value was 182%.

Question: And the “change of STAT5A Y694 tyrosine phosphorylation” value [1, 3]?
Answer: Its value is 50%.

Question: What about the “change of VCL Y821 tyrosine phosphorylation” value [1, 3] of the same substance?
Answer: The value was −20%.

Question: And the “change of ZAP70 Y292 tyrosine phosphorylation” value [1, 3]?
Answer: Its value is −46%.

Question: What about the “change of ZAP70 Y315 + Y319 tyrosine phosphorylation” value [1, 3] of the same substance?
Answer: The value was 12%.

Question: And the “Functional effect of P1-WD on ABL1” value [1, 4]?
Answer: Its value is “IN”.

Question: And the “Functional effect of P1-WD on BLNK” value [1, 4]?
Answer: The value was “ACT”.

Question: What about the “Functional effect of P1-WD on BMX” value [1, 4] of the same substance?
Answer: Its value is “IN”.

Question: And the “Functional effect of P1-WD on BTK” value [1, 4]?
Answer: The value was “IN”.

Question: And the “Functional effect of P1-WD on CDK2” value [1, 4]?
Answer: The value was “IN”.

Question: And the “Functional effect of P1-WD on CTTN” value [1, 4]?
Answer: Its value is “IN”.

Question: And the “Functional effect of P1-WD on DAB1” value [1, 4]?
Answer: The value was “IN”.

Question: What about the “Functional effect of P1-WD on DOK2” value [1, 4] of the same substance?
Answer: Its value is “ACT”.

Question: And the “Functional effect of P1-WD on ERBB2” value [1, 4]?
Answer: Its value is “ACT”.

Question: What about the “Functional effect of P1-WD on GRIN2B” value [1, 4] of the same substance?
Answer: Its value is “ACT”.

Question: And the “Functional effect of P1-WD on ITGB1” value [1, 4]?
Answer: Its value is “IN”.

Question: What about the “Functional effect of P1-WD on JAK2” value [1, 4] of the same substance?
Answer: Its value is “IN”.

Question: What about the “Functional effect of P1-WD on KDR” value [1, 4] of the same substance?
Answer: Its value is “IN”.

Question: And the “Functional effect of P1-WD on KIT” value [1, 4]?
Answer: The value was “IN”.

Question: What about the “Functional effect of P1-WD on LIMK1” value [1, 4] of the same substance?
Answer: Its value is “IN”.

Question: And the “Functional effect of P1-WD on MET” value [1, 4]?
Answer: Its value is “IN”.

Question: And the “Functional effect of P1-WD on PDGFRA” value [1, 4]?
Answer: The value was “ACT”.

Question: And the “Functional effect of P1-WD on PDGFRB” value [1, 4]?
Answer: The value was “IN”.

Question: What about the “Functional effect of P1-WD on PRKCD” value [1, 4] of the same substance?
Answer: The value was “ACT”.

Question: And the “Functional effect of P1-WD on SHC1” value [1, 4]?
Answer: The value was “IN”.

Question: And the “Functional effect of P1-WD on STAT1” value [1, 4]?
Answer: Its value is “ACT”.

Question: And the “Functional effect of P1-WD on STAT2” value [1, 4]?
Answer: The value was “ACT”.

Question: What about the “Functional effect of P1-WD on STAT3” value [1, 4] of the same substance?
Answer: Its value is “ACT”.

Question: And the “Functional effect of P1-WD on STAT5A” value [1, 4]?
Answer: Its value is “ACT”.

Question: What about the “Functional effect of P1-WD on VCL” value [1, 4] of the same substance?
Answer: Its value is “IN”.

Question: And the “Functional effect of P1-WD on INSR” value [1, 5]?
Answer: The value was “ACT/ACT”.

Question: And the “Functional effect of P1-WD on PXN” value [1, 5]?
Answer: The value was “ACT/ACT”.

Question: And the “Functional effect of P1-WD on SRC” value [1, 5]?
Answer: Its value is “IN/IN”.

Question: What about the “Functional effect of P1-WD on ZAP70” value [1, 5] of the same substance?
Answer: Its value is “ACT/ACT”.

Question: And the “Functional effect of P1-WD on PTK2” value ([1]; putative, inferred from literature data-mining, per p-Site Y397/Y577/Y576/Y861, cell wraps to r32 (/IN))?
Answer: Its value is “ACT/IN/ACT”.

Question: And the “Functional effect of P1-WD on EGFR” value ([1]; putative, inferred from literature data-mining, per p-Site Y1068/Y1148/Y1173)?
Answer: The value was “IN/IN/ACT”.

Question: “TAT-ICD: fusion recombinant protein SEQ ID 5: PTPRG intracellular domain aa 797-1445 fused to 13 aa TAT sequence” was tested. Which circulating erythroblasts ([2]; Hbb^th3/+ mice, Vehicle-treated 32.0) did it give?
Answer: Its circulating erythroblasts is 10.8*.

Question: And the circulating erythroblasts ([2]; Wild-type mice, Vehicle-treated 0)?
Answer: Its circulating erythroblasts is 0.
